Data published in patent US8318467B2, “Inhibitors of GSK-3 and crystal structures of GSK-3β protein and protein complexes” (Vertex Pharmaceuticals Incorporated, priority 2001, dated 2012).

biological target: T1, GSK-3β (amino acids 1-420) (Homo sapiens, UniProt P49841); assay: Ki determination for the inhibition of GSK-3 (standard coupled enzyme system); assay type: biochemical; details: 20 μM ATP, 300 μM peptide, 20 nM GSK-3β, 30° C.; read-out: Ki (GSK-3 inhibitory activity)
T1 construct: hexa-histidine tag with thrombin cleavage site (N); made in house
Procedure: Reactions were carried out in a solution containing 100 mM HEPES (pH 7.5), 10 mM MgCl2, 25 mM NaCl, 300 μM NADH, 1 mM DTT and 1.5% DMSO. […] Reactions were carried out at 30° C. and 20 nM GSK-3β. Final concentrations of the components of the coupled enzyme system were 2.5 mM phosphoenolpyruvate, 300 μM NADH, 30 μg/ml pyruvate kinase and 10 μg/ml lactate dehydrogenase.
An assay stock buffer solution was prepared containing all of the reagents listed above with the exception of ATP and the test compound of interest. The assay stock buffer solution (175 μl) was incubated in a 96 well plate with 5 μl of the test compound of interest at final concentrations spanning 0.002 μM to 30 μM at 30° C. for 10 min. […] The reaction was initiated by the addition of 20 μl of ATP (final concentration 20 μM). Reaction rates were obtained using a Molecular Devices Spectramax plate reader (Sunnyvale, Calif.) over 10 min at 30° C. The Ki values were determined from the rate data as a function of inhibitor concentration.

T1 sequence (P49841 whole entry, the tested form may be a part): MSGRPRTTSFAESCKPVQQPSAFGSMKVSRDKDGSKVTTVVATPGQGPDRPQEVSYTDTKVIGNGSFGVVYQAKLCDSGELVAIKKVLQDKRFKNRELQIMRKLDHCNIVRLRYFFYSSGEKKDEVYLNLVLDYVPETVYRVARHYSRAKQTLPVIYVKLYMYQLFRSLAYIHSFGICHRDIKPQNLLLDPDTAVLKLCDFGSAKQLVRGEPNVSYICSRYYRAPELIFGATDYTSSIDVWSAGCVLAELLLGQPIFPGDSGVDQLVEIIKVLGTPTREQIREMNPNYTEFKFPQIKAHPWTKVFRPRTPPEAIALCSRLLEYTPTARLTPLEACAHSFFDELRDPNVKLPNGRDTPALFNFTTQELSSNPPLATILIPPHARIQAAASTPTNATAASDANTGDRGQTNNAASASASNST

| Ki [µM] | SMILES |
| --- | --- |
| > 10 | Nc1n[nH]c2nnc(-c3ccccc3)c(-c3ccc(Cl)cc3)c12 [Compound 2, 3-Amino-4(4-chlorophenyl)-5-phenyl-1H-pyrazolo[3,4-c]pyridazine] |
| 0.1 to 10 | Nc1n[nH]c2nnc(-c3ccc(F)cc3)c(-c3ccc(F)cc3)c12 [Compound 3, 3-Amino-4,5-bis(4-fluorophenyl)-1H-pyrazolo[3,4-c]pyridazine] |
| > 10 | Nc1n[nH]c2nnc(-c3ccc(F)cc3)c(-c3ccccc3)c12 [Compound 4, 3-Amino-4-phenyl-5-(4-fluorophenyl)-1H-pyrazolo[3,4-c]pyridazine] |
| < 0.1 | Nc1n[nH]c2nnc(-c3ccccc3)c(-c3ccc(F)cc3)c12 [Compound 5, 3-Amino-4-(1-fluorophenyl)-5-phenyl-1H-pyrazolo[3,4-c]pyridazine] |
| < 0.1 | Nc1n[nH]c2nnc(-c3ccccc3)c(-c3cccc(F)c3)c12 [Compound 6, 3-Amino-4(3-fluorophenyl)-5-phenyl-1H-pyrazolo[3,4-c]pyridazine] |
| > 10 | Nc1n[nH]c2nnc(-c3ccncc3)c(-c3ccccc3)c12 [Compound 7, 3-Amino-4-phenyl-5-(4-pyridyl)-1H-pyrazolo[3,4-c]pyridazine] |
| < 0.1 | Nc1n[nH]c2nnc(-c3cccc(F)c3)c(-c3ccccc3)c12 [Compound 8, 3-Amino-4-phenyl-5-(3-fluorophenyl)-1H-pyrazolo[3,4-c]pyridazine] |
| 0.1 to 10 | CC(=O)Nc1n[nH]c2nnc(-c3ccccc3)c(-c3ccccc3)c12 [Compound 9, N-(4,5-Diphenyl-1H-pyrazolo[3,4-c]pyridazin-3-yl)-acetamide] |
| 0.1 to 10 | O=C(Nc1n[nH]c2nnc(-c3ccccc3)c(-c3ccccc3)c12)c1ccccc1 [Compound 10, N-(4,5-Diphenyl-1H-pyrazolo[3,4-c]pyridazin-3-yl)-benzamide] |
| < 0.1 | Cc1ccc(-c2nnc3[nH]nc(N)c3c2-c2ccccc2)cc1 [Compound 11, 3-Amino-4-phenyl-5-(4-methyl-phenyl)-1H-pyrazolo[3,4-c]pyridazine] |
| 0.1 to 10 | Cc1ccccc1-c1nnc2[nH]nc(N)c2c1-c1ccccc1 [Compound 12, 3-Amino-4-phenyl-5-(2-methyl-phenyl)-1H-pyrazolo[3,4-c]pyridazine] |
| 0.1 to 10 | Cc1cccc(-c2nnc3[nH]nc(N)c3c2-c2ccccc2)c1 [Compound 13, 3-Amino-4-phenyl-5-(3-methyl-phenyl)-1H-pyrazolo[3,4-c]pyridazine] |
| < 0.1 | Nc1n[nH]c2nnc(-c3ccccc3Cl)c(-c3ccccc3)c12 [Compound 14, 3-Amino-4-phenyl-5-(2-chloro-phenyl)-1H-pyrazolo[3,4-c]pyridazine] |
| < 0.1 | Nc1n[nH]c2nnc(-c3ccccc3F)c(-c3ccccc3)c12 [Compound 15, 3-Amino-4-phenyl-5-(2-fluorophenyl)-1H-pyrazolo[3,4-c]pyridazine] |
| 0.1 to 10 | Nc1n[nH]c2nnc(-c3ccc(Cl)cc3)c(-c3ccccc3)c12 [Compound 16, 3-Amino-4-phenyl-5-(4-chloro-phenyl)-1H-pyrazolo[3,4-c]pyridazine] |
| 0.1 to 10 | Nc1n[nH]c2nncc(-c3ccccc3)c12 [Compound 32, 4-Phenyl-1H-pyrazolo[3,4-c]pyridazin-3-ylamine] |
